Ki data for 55 compounds are collected here from patent US8927559B2, “Quinazolinone-type compounds as CRTH2 antagonists” (Merck Sharp & Dohme Corp., priority 2010, dated 2015).

The structures appear in SMILES notation. Bounds are passed on as bounds.

In the first test the target is T1, CRTH2 receptor (hCRTH2) (Homo sapiens, UniProt Q9Y5Y4).
T1 construct: expressed in transfected cells; host or cells: HEK cells (HEK-hCRTH2 cell line), membranes
T1 sequence (Q9Y5Y4 1-395): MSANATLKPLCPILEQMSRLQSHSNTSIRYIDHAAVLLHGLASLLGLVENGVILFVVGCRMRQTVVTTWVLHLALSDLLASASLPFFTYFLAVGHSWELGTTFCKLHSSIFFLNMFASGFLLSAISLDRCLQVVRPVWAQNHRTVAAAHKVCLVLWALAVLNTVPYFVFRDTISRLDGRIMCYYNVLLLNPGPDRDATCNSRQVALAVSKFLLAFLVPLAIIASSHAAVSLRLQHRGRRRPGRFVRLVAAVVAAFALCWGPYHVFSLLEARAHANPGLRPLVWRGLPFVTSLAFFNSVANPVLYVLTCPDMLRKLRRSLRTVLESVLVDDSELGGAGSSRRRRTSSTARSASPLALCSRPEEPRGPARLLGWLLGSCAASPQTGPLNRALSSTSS
The test is described as follows: Radioligand binding assay ([3H]PGD2 competition, membranes of HEK-hCRTH2 cell line). The note with it: 3.0 nM [3H]PGD2, HEK-hCRTH2 membranes, 60 min, room temperature; read-out: Ki. The gist of the method:
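Membranes (8-20 μg protein) from HEK cells expressing human CRTH2 were incubated with [3H]PGD2 and competitor in 1% DMSO for 60 min at room temperature. Non-specific binding was defined with excess PGD2. Bound radioactivity was separated by filtration and counted by melt-on scintillation.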
Consider `CC1(c2ccc(C#N)cc2)CC(c2ccc3c(=O)n(-c4ccc(Cl)cc4)c(CCCCC(=O)O)nc3c2)=NO1` (stereo not shown) [Example 113], for which the inhibitory constant (Ki) was at most 10 nM.
The same measure, in the same setting: then `CC1(c2ccc(C#N)cc2)CC(c2ccc3c(=O)n(-c4ccc(F)cc4)c(CCCCC(=O)O)nc3c2)=NO1` (stereo not shown) [Example 114], with at most 10 nM; and `CC1(c2nc3ccccc3o2)CC(c2ccc3c(=O)n(-c4ccc(Cl)cc4)c(CCCCC(=O)O)nc3c2)=NO1` (stereo not shown) [Example 116], with at most 10 nM.
`CC1(c2ccc(F)c(F)c2)CC(c2ccc3c(=O)n(-c4ccc(F)cc4)c(CCCCC(=O)O)nc3c2)=NO1` (stereo not shown) [Example 124]: the inhibition constant (Ki) was at most 10 nM.
Consider `O=C(O)CCCCc1nc2cc(C3=NOC(c4ccccc4)(C(F)(F)F)C3)ccc2c(=O)n1-c1ccc(F)cc1` (stereo not shown) [Example 127], for which the inhibition constant Ki is 10 to 50 nM.
For the compound `C=C(c1ccccc1)c1cc(-c2ccc3c(=O)n(-c4ccc(F)cc4)c(CCCCC(=O)O)nc3c2)no1` [Example 128], the Ki is at most 10 nM.
As to `CC(O)(c1cc(-c2ccc3c(=O)n(-c4ccc(F)cc4)c(CCCCC(=O)O)nc3c2)no1)c1ccccc1F` (stereo not shown) [Example 129], the Ki was at most 10 nM.
The same measure, in the same setting: then `CC(O)(c1cccc(F)c1)c1cc(-c2ccc3c(=O)n(-c4ccc(F)cc4)c(CCCCC(=O)O)nc3c2)no1` (stereo not shown) [Example 130], with at most 10 nM; and `O=C(O)CCCCc1nc2cc(-c3cc(C(O)(c4ccccc4)C(F)(F)F)on3)ccc2c(=O)n1-c1ccc(F)cc1` (stereo not shown) [Example 131], with 10 to 50 nM; and `CC1(C(O)c2ccc(C#N)cc2)CC(c2ccc3c(=O)n(-c4ccc(F)cc4)c(CCCCC(=O)O)nc3c2)=NO1` (stereo not shown) [Example 132], with 10 to 50 nM.
As to `CC(c1ccccc1)c1cc(-c2ccc3c(=O)n(-c4ccc(F)cc4)c(CCCCC(=O)O)nc3c2)no1` (stereo not shown) [Example 133], the inhibition constant Ki was at most 10 nM.
The same measure, in the same setting: under `C[C@@]1([C@H](O)c2cccc(C#N)c2)CC(c2ccc3c(=O)n(-c4ccc(F)cc4)c(CCCCC(=O)O)nc3c2)=NO1` [Example 136] stands at most 10 nM; under `C[C@@]1([C@@H](O)c2cccc(C#N)c2)CC(c2ccc3c(=O)n(-c4ccc(F)cc4)c(CCCCC(=O)O)nc3c2)=NO1` [Example 137], at most 10 nM; under `C[C@]1([C@H](O)c2cccc(C#N)c2)CC(c2ccc3c(=O)n(-c4ccc(F)cc4)c(CCCCC(=O)O)nc3c2)=NO1` [Example 138], 10 to 50 nM.
On the same count and under the same terms, under `O=C(O)CCCCc1nc2cc(C3=NOC4(CCc5ccccc54)C3)ccc2c(=O)n1-c1ccc(F)cc1` (stereo not shown) [Example 143] stands 10 to 50 nM.
Still for that read-out and setting: then `O=C(O)CCCCc1nc2cc(C3=NOC4(CCc5c(F)cccc54)C3)ccc2c(=O)n1-c1ccc(F)cc1` (stereo not shown) [Example 144], with 10 to 50 nM.
Regarding `O=C(O)CCCCc1nc2cc(C3=NOC4(C3)Cc3ccccc3C4)ccc2c(=O)n1-c1ccc(F)cc1` [Example 145], the Ki is at most 10 nM.
For the compound `CO[C@@H](c1ccccc1)c1cc(-c2ccc3c(=O)n(-c4ccc(F)cc4)c(C(C)CCCC(=O)O)nc3c2)no1` (stereo partly shown) [Example 146], the Ki is 10 to 50 nM.
On the same count and under the same terms, under `CO[C@@H](c1ccccc1)c1cc(-c2ccc3c(=O)n(-c4ccc(F)cc4)c(CCCCC(=O)O)nc3c2)no1` [Example 147] stands at most 10 nM; under `CO[C@H](c1ccccc1)c1cc(-c2ccc3c(=O)n(-c4ccc(F)cc4)c(C(C)CCCC(=O)O)nc3c2)no1` (stereo partly shown) [Example 148], at most 10 nM.
The same measure, in the same setting: under `CO[C@H](c1ccccc1)c1cc(-c2ccc3c(=O)n(-c4ccc(F)cc4)c(CCCCC(=O)O)nc3c2)no1` [Example 149] stands at most 10 nM; under `O=C(O)CCCCc1nc2cc(C3=NOC(c4nc5ccc(Cl)cc5o4)C3)ccc2c(=O)n1-c1ccc(F)cc1` (stereo not shown) [Example 150], at most 10 nM; under `O=C(O)CCCCc1nc2cc(C3=NOC(c4nc5ccc(Cl)cc5s4)C3)ccc2c(=O)n1-c1ccc(F)cc1` (stereo not shown) [Example 151], at most 10 nM.
On the same count and under the same terms, then `O=C(O)CCCCc1nc2cc(C3=NO[C@H](c4nc5ccc(Cl)cc5o4)C3)ccc2c(=O)n1-c1ccc(F)cc1` [Example 152], with 10 to 50 nM; and `O=C(O)CCCCc1nc2cc(C3=NO[C@@H](c4nc5ccc(Cl)cc5o4)C3)ccc2c(=O)n1-c1ccc(F)cc1` [Example 153], with at most 10 nM.
Consider `O=C(O)CCCCc1nc2cc(C3=NO[C@H](c4nc5ccc(Cl)cc5s4)C3)ccc2c(=O)n1-c1ccc(F)cc1` [Example 154], for which the Ki is at most 10 nM.
On the same count and under the same terms, under `O=C(O)CCCCc1nc2cc(C3=NO[C@@H](c4nc5ccc(Cl)cc5s4)C3)ccc2c(=O)n1-c1ccc(F)cc1` [Example 155] stands at most 10 nM.
Same read-out and setting: under `O=C(O)C1CC(Cc2nc3cc(-c4cc(Cc5ccc(F)cc5)on4)ccc3c(=O)n2-c2ccc(F)cc2)C1` (stereo not shown) [Example 156] stands 10 to 50 nM.
Turning to `O=C(O)CCCCc1nc2cc(-c3cc(-c4ccc(Br)cc4)on3)ccc2c(=O)n1-c1ccc(F)cc1` [Example 157], the Ki lay within 10 to 50 nM.
On the same count and under the same terms, under `CC1(c2nc3ccc(Cl)cc3o2)CC(c2ccc3c(=O)n(-c4ccc(F)cc4)c(CCCCC(=O)O)nc3c2)=NO1` (stereo not shown) [Example 158] stands at most 10 nM; under `CC1(c2nc3cc(Cl)ccc3o2)CC(c2ccc3c(=O)n(-c4ccc(F)cc4)c(CCCCC(=O)O)nc3c2)=NO1` (stereo not shown) [Example 159], at most 10 nM; under `CC1(c2nc3ccccc3[nH]2)CC(c2ccc3c(=O)n(-c4ccc(F)cc4)c(CCCCC(=O)O)nc3c2)=NO1` (stereo not shown) [Example 160], at most 10 nM.
On the same count and under the same terms, under `CC1(c2nc3cc(F)ccc3o2)CC(c2ccc3c(=O)n(-c4ccc(F)cc4)c(CCCCC(=O)O)nc3c2)=NO1` (stereo not shown) [Example 161] stands at most 10 nM; under `CC1(c2nc3ccccn3c2Cl)CC(c2ccc3c(=O)n(-c4ccc(F)cc4)c(CCCCC(=O)O)nc3c2)=NO1` (stereo not shown) [Example 162], at most 10 nM; under `C[C@@]1(c2nc3cc(F)ccc3o2)CC(c2ccc3c(=O)n(-c4ccc(F)cc4)c(CCCCC(=O)O)nc3c2)=NO1` [Example 163], at most 10 nM.
On the same count and under the same terms, then `C[C@]1(c2nc3cc(F)ccc3o2)CC(c2ccc3c(=O)n(-c4ccc(F)cc4)c(CCCCC(=O)O)nc3c2)=NO1` [Example 164], with 10 to 50 nM.
Regarding `CC1(C(=O)Nc2cc(Cl)c(Cl)cc2O)CC(c2ccc3c(=O)n(-c4ccc(F)cc4)c(CCCCC(=O)O)nc3c2)=NO1` (stereo not shown) [Example 165], the inhibition constant (Ki) was 10 to 50 nM.
On the same count and under the same terms, then `CC1(C(=O)Nc2cc(F)ccc2O)CC(c2ccc3c(=O)n(-c4ccc(F)cc4)c(CCCCC(=O)O)nc3c2)=NO1` (stereo not shown) [Example 166], with at most 10 nM; and `C[C@@]1(c2nc3ccccn3c2Cl)CC(c2ccc3c(=O)n(-c4ccc(F)cc4)c(CCCCC(=O)O)nc3c2)=NO1` [Example 167], with at most 10 nM; and `CC1(c2nc3ccc(F)cc3o2)CC(c2ccc3c(=O)n(-c4ccc(F)cc4)c(CCCCC(=O)O)nc3c2)=NO1` (stereo not shown) [Example 169], with at most 10 nM.
Same read-out and setting: then `CC1(c2cn3ccccc3n2)CC(c2ccc3c(=O)n(-c4ccc(F)cc4)c(CCCCC(=O)O)nc3c2)=NO1` (stereo not shown) [Example 171], with at most 10 nM; and `C[C@]1(c2nc3ccc(Cl)cc3o2)CC(c2ccc3c(=O)n(-c4ccc(F)cc4)c(CCCCC(=O)O)nc3c2)=NO1` [Example 172], with at most 10 nM.
With `CC1(c2nc3ccc(F)cc3[nH]2)CC(c2ccc3c(=O)n(-c4ccc(F)cc4)c(CCCCC(=O)O)nc3c2)=NO1` (stereo not shown) [Example 174], the Ki was at most 10 nM.
`CC1(c2nc3ccc(Cl)cc3[nH]2)CC(c2ccc3c(=O)n(-c4ccc(F)cc4)c(CCCCC(=O)O)nc3c2)=NO1` (stereo not shown) [Example 175]: the Ki was at most 10 nM.
On the same count and under the same terms, under `C[C@]1(c2nc3ccccc3[nH]2)CC(c2ccc3c(=O)n(-c4ccc(F)cc4)c(CCCCC(=O)O)nc3c2)=NO1` [Example 176] stands at most 10 nM; under `C[C@@]1(c2cn3ccccc3n2)CC(c2ccc3c(=O)n(-c4ccc(F)cc4)c(CCCCC(=O)O)nc3c2)=NO1` [Example 178], at most 10 nM.

Still in this test, the particulars now being: Ki, 3.0 nM [3H]PGD2, HEK-hCRTH2 membranes, 60 min, room temperature.
With `O=C(O)CCCCc1nc2cc(C3=NOC(c4ccccc4)(c4ccccc4)C3)ccc2c(=O)n1-c1ccc(F)cc1` [Example 117], the inhibitory constant (Ki) lay within 10 to 50 nM.
The same measure, in the same setting: under `CC1(c2cccc(C#N)c2)CC(c2ccc3c(=O)n(-c4ccc(F)cc4)c(CCCCC(=O)O)nc3c2)=NO1` (stereo not shown) [Example 118] stands 10 to 50 nM; under `CC1(c2cccc(C#N)c2)CC(c2ccc3c(=O)n(-c4ccc(F)cc4)c(CCCCC(=O)O)nc3c2)=NO1` (stereo not shown) [Example 119], at most 10 nM; under `CC1(c2ccc(Cl)cc2)CC(c2ccc3c(=O)n(-c4ccc(F)cc4)c(CCCCC(=O)O)nc3c2)=NO1` (stereo not shown) [Example 120], at most 10 nM.
Same read-out and setting: under `CC1(c2ccc(F)cc2)CC(c2ccc3c(=O)n(-c4ccc(F)cc4)c(CCCCC(=O)O)nc3c2)=NO1` (stereo not shown) [Example 122] stands at most 10 nM; under `CC1(c2cc(F)cc(F)c2)CC(c2ccc3c(=O)n(-c4ccc(F)cc4)c(CCCCC(=O)O)nc3c2)=NO1` (stereo not shown) [Example 125], at most 10 nM.
Regarding `CC1(c2cc(F)cc(F)c2)CC(c2ccc3c(=O)n(-c4ccc(F)cc4)c(CCCCC(=O)O)nc3c2)=NO1` (stereo not shown) [Example 126], the Ki lay within 10 to 50 nM.
Same read-out and setting: then `CC1(c2nc3ccccc3s2)CC(c2ccc3c(=O)n(-c4ccc(F)cc4)c(CCCCC(=O)O)nc3c2)=NO1` (stereo not shown) [Example 170], with at most 10 nM.
Still for that read-out and setting: under `C[C@@]1(c2nc3ccccc3s2)CC(c2ccc3c(=O)n(-c4ccc(F)cc4)c(CCCCC(=O)O)nc3c2)=NO1` [Example 180] stands at most 10 nM.

For orientation: Ki means a dissociation constant, usually derived from enzyme kinetics or from competition with a known ligand.
